Assay [1] relates to α-isomaltosylglucosaccharide-forming enzyme. In words: Specificity of transfer acceptor (C11 enzyme). It counts as biochemical, Bacillus globisporus C11 strain. More on the design: key: −: no saccharide-transferred product was detected through transferring reaction to acceptor; ±: a saccharide-transferred product was detected in an amount of less than one percent through transfer reaction to acceptor; +: a saccharide-transferred product was detected in an amount of at least one percent but less than ten percent through transferring reaction to acceptor; ++: a saccharide-transferred product was detected in an amount of at least ten percent through transferring reaction to acceptor. Conditions: acceptor 1.6%, PINE-DEX #100 donor 4%, one unit/g donor, 30° C., pH 6.0, 24 hours. The method, then:
(§1) A variety of saccharides were tested whether they could be used as transferring-acceptors for the α-isomaltosylglucosaccharide-forming enzyme. A solution of D-glucose, D-xylose, L-xylose, D-galactose, D-fructose, D-mannose, D-arabinose, D-fucose, L-sorbose, L-rhamnose, methyl-α-glucopyranoside, methyl-β-glucopyranoside, N-acetyl-glucosamine, sorbitol, α,α-trehalose, isomaltose, isomaltotriose, cellobiose, gentibiose, maltitol, lactose, sucrose, α-cyclodextrin, β-cyclodextrin, or γ-cyclodextrin was prepared. […] The reaction mixtures after the enzymatic reactions were analyzed on gas chromatography (abbreviated as “GLC” hereinafter) for monosaccharides and disaccharides as acceptors, and on HPLC for trisaccharides and higher saccharides as acceptors to confirm whether these saccharides could be used as their transfer acceptors. In the case of performing GLC, the following apparatuses and conditions were used: […] In the case of HPLC analysis, the apparatuses and conditions used were: HPLC apparatus, “CCPD” commercialized by Tosoh Corporation, Tokyo, Japan; column, “ODS-AQ-303” commercialized by YMC Co., Ltd., Tokyo, Japan; eluent, water at a flow rate of 0.5 ml/min; and detection, a differential refractometer.

Assay [2] shares this test system. In words: Specificity of transfer acceptor (C9 enzyme). Conditions: acceptor 1.6%, PINE-DEX #100 donor 4%, one unit/g donor, 30° C., pH 6.0, 24 hours. It counts as biochemical, Bacillus globisporus C9 strain. More on the design: key: −: no saccharide-transferred product was detected through transferring reaction to acceptor; ±: a saccharide-transferred product was detected in an amount of less than one percent through transfer reaction to acceptor; +: a saccharide-transferred product was detected in an amount of at least one percent but less than ten percent through transferring reaction to acceptor; ++: a saccharide-transferred product was detected in an amount of at least ten percent through transferring reaction to acceptor. As for the experimental part: as §1

The values that follow come from patent publication US7186701B2, “Dehydrating agent and method for dehydrating moist article using the agent and dehydrated article obtained by the method” (Kabushiki Kaisha Hayashibara Seibutsu Kagaku Kenkyujo, priority 2001, dated 2007).

Take `C[C@H](O)[C@H](O)[C@@H](O)[C@@H](O)C=O` [L-Rhamnose, L-rhamnose]: in assay [1], the “Product of saccharide transferring reaction, Enzyme of C11 strain” value (from here on “Product … of C11 strain”) was “−”. Also, the “Product of saccharide transferring reaction, Enzyme of C9 strain” value (shortened to “Product … of C9 strain”) in assay [2] is on record as “−”.
In the case of `OC[C@H]1O[C@@H]2O[C@H]3[C@H](O)[C@@H](O)[C@@H](O[C@H]4[C@H](O)[C@@H](O)[C@@H](O[C@H]5[C@H](O)[C@@H](O)[C@@H](O[C@H]6[C@H](O)[C@@H](O)[C@@H](O[C@H]7[C@H](O)[C@@H](O)[C@@H](O[C@H]8[C@H](O)[C@@H](O)[C@@H](O[C@H]1[C@H](O)[C@H]2O)O[C@@H]8CO)O[C@@H]7CO)O[C@@H]6CO)O[C@@H]5CO)O[C@@H]4CO)O[C@@H]3CO` [β-Cyclodextrin, β-cyclodextrin], the “Product … of C11 strain” value in assay [1] is on record as “−”. In assay [2], the “Product … of C9 strain” value is given as “−”.
Consider `O=C[C@@H](O)[C@H](O)[C@@H](O)CO` [L-Xylose, L-xylose], for which the “Product … of C11 strain” value in assay [1] is “++ (a saccharide-transferred product was detected in an amount of at least ten percent through transferring reaction to acceptor)”. Further, in assay [2], the “Product … of C9 strain” value is reported as “++ (a saccharide-transferred product was detected in an amount of at least ten percent through transferring reaction to acceptor)”.
Take `OC[C@H]1O[C@@H](O[C@H]2[C@H](O)[C@@H](O)C(O)O[C@@H]2CO)[C@H](O)[C@@H](O)[C@H]1O` (stereo partly drawn) [Lactose, lactose]: the “Product … of C11 strain” value in assay [1] is given as “++ (a saccharide-transferred product was detected in an amount of at least ten percent through transferring reaction to acceptor)”. Moreover, in assay [2], the “Product … of C9 strain” value was “++ (a saccharide-transferred product was detected in an amount of at least ten percent through transferring reaction to acceptor)”.
Regarding `OC[C@H]1O[C@H](OC[C@H]2O[C@H](OC[C@H]3OC(O)[C@H](O)[C@@H](O)[C@@H]3O)[C@H](O)[C@@H](O)[C@@H]2O)[C@H](O)[C@@H](O)[C@@H]1O` (stereo partly drawn) [Isomaltotriose, isomaltotriose], the “Product … of C11 strain” value in assay [1] is on record as “++ (a saccharide-transferred product was detected in an amount of at least ten percent through transferring reaction to acceptor)”. In addition, the “Product … of C9 strain” value in assay [2] is “++ (a saccharide-transferred product was detected in an amount of at least ten percent through transferring reaction to acceptor)”.
For `C[C@@H](O)[C@H](O)[C@H](O)[C@@H](O)C=O` [D-Fucose, D-fucose], the “Product … of C11 strain” value in assay [1] was “+ (a saccharide-transferred product was detected in an amount of at least one percent but less than ten percent through transferring reaction to acceptor)”. In assay [2], the “Product … of C9 strain” value is recorded as “+ (a saccharide-transferred product was detected in an amount of at least one percent but less than ten percent through transferring reaction to acceptor)”.
In the case of `OC[C@H]1O[C@@H]2O[C@H]3[C@H](O)[C@@H](O)[C@@H](O[C@H]4[C@H](O)[C@@H](O)[C@@H](O[C@H]5[C@H](O)[C@@H](O)[C@@H](O[C@H]6[C@H](O)[C@@H](O)[C@@H](O[C@H]7[C@H](O)[C@@H](O)[C@@H](O[C@H]1[C@H](O)[C@H]2O)O[C@@H]7CO)O[C@@H]6CO)O[C@@H]5CO)O[C@@H]4CO)O[C@@H]3CO` [α-Cyclodextrin, α-cyclodextrin], in assay [1], the “Product … of C11 strain” value is given as “−”. In assay [2], the “Product … of C9 strain” value was “−”.
Turning to `CC(=O)N[C@H]1C(O)O[C@H](CO)[C@@H](O)[C@@H]1O` (stereo partly drawn) [N-Acetyl-glucosamine, N-acetyl-glucosamine], the “Product … of C11 strain” value in assay [1] is on record as “+ (a saccharide-transferred product was detected in an amount of at least one percent but less than ten percent through transferring reaction to acceptor)”. Besides, the “Product … of C9 strain” value in assay [2] was “+ (a saccharide-transferred product was detected in an amount of at least one percent but less than ten percent through transferring reaction to acceptor)”.
`O=C[C@@H](O)[C@H](O)[C@H](O)CO` [D-Arabinose, D-arabinose]: in assay [1], the “Product … of C11 strain” value is “± (a saccharide-transferred product was detected in an amount of less than one percent through transfer reaction to acceptor)”. Moreover, the “Product … of C9 strain” value in assay [2] is on record as “± (a saccharide-transferred product was detected in an amount of less than one percent through transfer reaction to acceptor)”.
Regarding `OC[C@H]1O[C@@H](OC[C@H]2OC(O)[C@H](O)[C@@H](O)[C@@H]2O)[C@H](O)[C@@H](O)[C@@H]1O` (stereo partly drawn) [Gentibiose, gentibiose], in assay [1], the “Product … of C11 strain” value is listed as “++ (a saccharide-transferred product was detected in an amount of at least ten percent through transferring reaction to acceptor)”. Besides, the “Product … of C9 strain” value in assay [2] is listed as “++ (a saccharide-transferred product was detected in an amount of at least ten percent through transferring reaction to acceptor)”.
On to `OC[C@H]1O[C@@](CO)(O[C@H]2O[C@H](CO)[C@@H](O)[C@H](O)[C@H]2O)[C@@H](O)[C@@H]1O` [Sucrose, sucrose], for which, in assay [1], the “Product … of C11 strain” value was “++ (a saccharide-transferred product was detected in an amount of at least ten percent through transferring reaction to acceptor)”. In addition, the “Product … of C9 strain” value in assay [2] was “++ (a saccharide-transferred product was detected in an amount of at least ten percent through transferring reaction to acceptor)”.
Regarding `OC[C@@H](O)[C@@H](O)[C@H](O)[C@@H](O)CO` [Sorbitol, sorbitol], the “Product … of C11 strain” value in assay [1] is on record as “−”. Also, in assay [2], the “Product … of C9 strain” value was “−”.
For the compound `CO[C@H]1O[C@H](CO)[C@@H](O)[C@H](O)[C@H]1O` [Methyl-α-glucopyranoside, methyl-α-glucopyranoside], the “Product … of C11 strain” value in assay [1] is “++ (a saccharide-transferred product was detected in an amount of at least ten percent through transferring reaction to acceptor)”. Also, the “Product … of C9 strain” value in assay [2] is given as “++ (a saccharide-transferred product was detected in an amount of at least ten percent through transferring reaction to acceptor)”.
As for `O=C[C@H](O)[C@@H](O)[C@H](O)CO` [D-Xylose, D-xylose], the “Product … of C11 strain” value in assay [1] is given as “++ (a saccharide-transferred product was detected in an amount of at least ten percent through transferring reaction to acceptor)”. Also, the “Product … of C9 strain” value in assay [2] is given as “++ (a saccharide-transferred product was detected in an amount of at least ten percent through transferring reaction to acceptor)”.
As to `O=C(CO)[C@@H](O)[C@H](O)[C@H](O)CO` [D-Fructose, D-fructose], the “Product … of C11 strain” value in assay [1] was “+ (a saccharide-transferred product was detected in an amount of at least one percent but less than ten percent through transferring reaction to acceptor)”. Moreover, the “Product … of C9 strain” value in assay [2] is “+ (a saccharide-transferred product was detected in an amount of at least one percent but less than ten percent through transferring reaction to acceptor)”.
Regarding `O=C[C@H](O)[C@@H](O)[C@H](O[C@@H]1O[C@H](CO)[C@@H](O)[C@H](O)[C@H]1O)[C@H](O)CO` [Cellobiose, cellobiose], the “Product … of C11 strain” value in assay [1] is given as “++ (a saccharide-transferred product was detected in an amount of at least ten percent through transferring reaction to acceptor)”. In addition, the “Product … of C9 strain” value in assay [2] was “++ (a saccharide-transferred product was detected in an amount of at least ten percent through transferring reaction to acceptor)”.
Turning to `OC[C@H]1O[C@@H]2O[C@H]3[C@H](O)[C@@H](O)[C@@H](O[C@H]4[C@H](O)[C@@H](O)[C@@H](O[C@H]5[C@H](O)[C@@H](O)[C@@H](O[C@H]6[C@H](O)[C@@H](O)[C@@H](O[C@H]7[C@H](O)[C@@H](O)[C@@H](O[C@H]8[C@H](O)[C@@H](O)[C@@H](O[C@H]9[C@H](O)[C@@H](O)[C@@H](O[C@H]1[C@H](O)[C@H]2O)O[C@@H]9CO)O[C@@H]8CO)O[C@@H]7CO)O[C@@H]6CO)O[C@@H]5CO)O[C@@H]4CO)O[C@@H]3CO` [γ-Cyclodextrin, γ-cyclodextrin], the “Product … of C11 strain” value in assay [1] is given as “−”. Besides, in assay [2], the “Product … of C9 strain” value is “−”.
Consider `O=C(CO)[C@@H](O)[C@H](O)[C@@H](O)CO` [L-Sorbose, L-sorbose], for which the “Product … of C11 strain” value in assay [1] is reported as “+ (a saccharide-transferred product was detected in an amount of at least one percent but less than ten percent through transferring reaction to acceptor)”. The “Product … of C9 strain” value in assay [2] is “+ (a saccharide-transferred product was detected in an amount of at least one percent but less than ten percent through transferring reaction to acceptor)”.
